# Experimental data taken from patent publication US6461613B2, “Methods and compositions for the selective regulation of chorionic prostanoids” (priority 1993, dated 2002).
# Key:
# Type in all cases: cell-based
# [1] = test system: human term placenta; test: Effect of enzyme inhibitors on prostanoid release from perifused human term placental explants (RIA); conditions: quinacrine 10 μM; for effect on PGFM release vs control / effect on TxB2 release vs control: EDTA 1 mM in perifusion medium; for effect on 6-keto-PGF1α release vs control / effect on PGE release vs control: EDTA 1 mM, NDGA 10 μM in perifusion medium
# Experimental: Radioimmunoassays were performed in a fashion similar to what has been previously described (Siler-Khodr et al., 1986, Biol. Reprod., 35:312) which is specifically incorporated herein for this purpose, with specific exception as noted below. A perifusion model (described in Examples 2 and 3) was employed to determine placental cell response. Media collected from the perifusion samples prepared from placental tissues were assayed. […] All the samples from a given perifusion (placenta) were determined in the same assay. At the beginning of the fifth hour of the perifusion, Medium 199 in the experimental chambers was changed to Medium 199 containing quinacrine (10 μM), EDTA (1 mM), NDGA (10 μM) or indomethacin (50 μg/ml). Four replicated chambers were perifused with control medium and each of the experimental media. This experimental design was repeated in three different perifusions using placental tissues from three different patients according to the procedure described in Example 3. […] Term placentas were obtained and placed on ice immediately after vaginal delivery from patients having spontaneous labor and delivery without any known obstetrical or medical complications. Tissues were obtained in accordance with a protocol approved by the Institutional Review Board. Within 30 minutes, the placental tissues were dissected of decidua, chorionic plates and large fetal vessels on ice. The placental tissues were cut into small fragments (approximately 25 pieces having a total weight of approximately 1 g), rinsed free of blood by repeated washing with ice cold normal saline until clear in color, and the tissue fragments placed in a 3-ml tissue chamber, placed in a 37° C. water bath. […] This medium is hereafter referred to as Medium 199. […] Perifusion was performed for two hours prior to initiation of sample collection. In this fashion, all tissues were thoroughly washed and equilibrated. Samples were collected hourly, beginning at the start of the third hour, into 12×75 mm glass tubes containing 0.1 ml indomethacin and 1100 μg/ml dimethyl sulfoxide [DMSO]. It took approximately one hour for the input medium to pass through the perifusion tubing and chamber and to be collected in the sample tube, thus the dead volume of the system was approximately 1 ml. Collection of the effluent of the 20 chambers was done simultaneously, using an ISCO fraction collector Retriever III adapted with a 20-tube rack and manifold. The prostanoid release for a given chamber was expressed as the increase over the fourth-hour prostanoid release for that chamber. Because there may be differences in the amounts of blood vessels and connective tissue among placental explants, the release expressed per unit weight results in high variance between chambers. […] Thus, the release of each chamber was related to its functional competence at the time of treatment rather than its mass. The mean release for replicate chambers from a given placenta for each particular prostanoid in the presence of arachidonic acid or each of the various enzyme inhibitors was calculated and then the mean data for each of the three different placentas was averaged at each time point. Thus, each placenta was weighted equally in the statistical analyses. Two-way analysis of variance of the average response for each prostanoid for each dose of arachidonic acid or each enzyme inhibitor studied, at each time point, was performed. The normalized data were tested for homogeneity using Cohrna's Q test, and no significant deviation was found. Thus, for each prostanoid and each treatment, where there was a significant main effect or interaction, Dunnett's comparison test was applied to determine the point(s) of significant difference as compared to the control. P<0.05 was considered to be statistically significant.
# [2] = test system: human term placenta; test: Dose-related action of IGF-I on basal prostanoid production from perifused human term placenta
# Experimental: The dose-related effect of IGF-I on placental prostanoids was studied with the perifusion system previously described herein. Normal term deliveries were perifused with a defined Medium 199 containing no phenol red nor exogenous hormonal factors other than 100μU/ml of insulin, estradiol (200 ng/ml), progesterone (4000 ng/ml) and dexamethasone (10^−8). These doses were chosen to emulate the normal term placental environment. Replicate chambers for the control (n=4) and treatment (n=3) explants for each placenta were made. Following a five-hour perifusion at 6 ml/hr with basal media, IGF-I (5, 10, 20, 40 or 80 ng/ml) was added to the triplicate chambers and sample collection continued every 30 minutes for another five hours. The average hormonal response for the replicate chambers of the control and the IGF-I treated explants was calculated and then the mean (±SEM) response for the different placentas with and without treatment was computed and the results compared. […] TxB2 was inhibited at even 10 ng/ml of IGF-I.
# [3] = test system: human term placenta; test: IGF-I effect on prostanoid and hCG release from perifused human term placental explants
# Experimental: Term placentas were obtained and processed as described herein. Seven replicate chambers were prepared and each perifused with Medium 199 containing 0.05% BSA, penicillin (100 U/ml), streptomycin (100 μg/ml), estradiol (200 ng/ml), progesterone (2000 ng/ml), dexamethasone (10^−8 M), and insulin (100 μU/ml), at a rate of 6 ml/hour for 10.5 hours. Steroids were first dissolved in ethanol at 10^−4M final concentration and taken to final dilution with BSA-containing medium. This medium is hereafter referred to as Medium 199. These concentrations of steroid were chosen because they are known by those in the obstetrical arts to simulate the intrauterine milieu in vivo in humans. The influx medium was aerated with 95% air and 5% CO2 throughout the perifusion. Perifusion at a rate of 6 ml/hr was performed for […] prior to initiation of sample collection. In this fashion, all tissues were thoroughly washed and equilibrated. Samples were collected every half-hour, beginning at the start of the fourth hour, into 12×75 mm glass tubes containing 0.1 ml indomethacin (1100 μg/ml dimethyl sulfoxide [DMSO]). Collection of the effluent of the seven chambers was done simultaneously, using an ISCO fraction collector Retriever III adapted with a rack having seven tubes and a manifold.
# To study the effect of IGF-I on basal prostanoid release, ten minutes prior to the beginning of the fifth hour of the perifusion, Medium 199 in the experimental chambers was changed to Medium 199 containing IGF-I (10^−8 M). This dose of IGF-I was chosen from calculations of the inventor using the Km of the placental receptor for IGF-I. It took ten minutes for the input medium to pass through the perifusion tubing and chamber and to be collected in the sample tube. Three replicated chambers were perifused with experimental medium, whereas, in another four replicated chambers, the perifusion was continued with the control, Medium 199. This experimental design was repeated using placental tissues from three different patients each having a normal pregnancy.
# Prostanoid recovery and stability was determined as described in Example 1. Prostanoid radioimmunoassay was also conducted as described in Example 1.
# Hormonal values for a given chamber were normalized to the fifth-hour prostanoid or hCG release for that chamber, expressed as a percent release over the fifth-hour release. Because there may be differences in the amount of blood vessels and connective tissue among placental explants, the release expressed per unit weight results in high variance between chambers. […] Thus, the release of each chamber was related to its functional competence at the time of treatment rather than to its mass. The mean release for replicate chambers from a given placenta for each particular hormone in the presence of IGF-I at each time point was calculated and the mean data for each of the three different placentas were averaged at each time point. Thus, each placenta was weighed equally in the statistical analyses. Similar calculations were done for the controls as for the experimental chambers. For each hormone studied, these average normalized data were tested for homogeneity, using Bartlett's test, and if significant deviation was found, the data were log-transformed prior to statistical analysis. Two-way analysis of variance was used to determine if there was significant main effect or interaction.
# In addition, the cumulative release for each hormone from each placenta for each treatment was calculated. One-way analysis of variance was used to test for statistical effects of treatment. The points of significant variation were determined using the Student-Newman-Keuls test.
# [4] = test system: human term placenta; test: Effect of arachidonic acid on prostanoid release from perifused human term placental explants
# Experimental: Radioimmunoassays were performed in a fashion similar to what has been previously described (Siler-Khodr et al., 1986, Biol. Reprod., 35:312) which is specifically incorporated herein for this purpose, with specific exception as noted below. A perifusion model (described in Examples 2 and 3) was employed to determine placental cell response. Media collected from the perifusion samples prepared from placental tissues were assayed. After an initial pilot study of the prostanoid release of each of the perifusion placental tissue media samples collected hourly, samples from hours 3, 4, 5, 6, 8 and 12 of the perifusion were chosen for assay and for data analysis. All the samples from a given perifusion (placenta) were determined in the same assay.
# The effect of exogenous arachidonic acid on basal prostanoid release was studied by perifusing placental tissue from the beginning of the fifth hour of the perifusion, with Medium 199 containing arachidonic acid (0.2, 1.0 or 10 μg/ml). Arachidonic acid was dissolved in ethanol such that 0.02 ml ethanol per 100 ml of Medium 199 was needed to obtain these concentrations, and the resulting ethanol concentration was 0.02%. The control medium was also made to be 0.02% ethanol for valid comparison of the arachidonic acid parameter only. Four replicated chambers were perifused with control medium and each of the experimental arachidonic acid media. This experimental design was repeated using placental tissues from three different patients.
# Briefly, term placenta were obtained and placed on ice immediately after vaginal delivery from patients having spontaneous labor and delivery without any known obstetrical or medical complications. Tissues were obtained in accordance with a protocol approved by the Institutional Review Board. Within 30 minutes, the placental tissues were dissected of decidua, chorionic plates and large fetal vessels on ice. The placental tissues were cut into small fragments (approximately 25 pieces having a total weight of approximately 1 g), rinsed free of blood by repeated washing with ice cold normal saline until clear in color, and the tissue fragments placed in a 3-ml tissue chamber, placed in a 37° C. water bath. Twenty replicate chambers were prepared and each perifused with Medium 199 containing 0.05% BSA, 100 U penicillin and 100 μg streptomycin per ml at a rate of 1 ml per hour for 12 hours. This medium is hereafter referred to as Medium 199. The influx medium was aerated with 95% air and 5% CO2 throughout the perifusion. Perifusion was performed for two hours prior to initiation of sample collection. In this fashion, all tissues were thoroughly washed and equilibrated. Samples were collected hourly, beginning at the start of the third hour, into 12×75 mm glass tubes containing 0.1 ml indomethacin and 1100 μg/ml dimethyl sulfoxide [DMSO]. It took approximately one hour for the input medium to pass through the perifusion tubing and chamber and to be collected in the sample tube, thus the dead volume of the system was approximately 1 ml. Collection of the effluent of the 20 chambers was done simultaneously, using an ISCO fraction collector Retriever III adapted with a 20-tube rack and manifold.
# The prostanoid release for a given chamber was expressed as the increase over the fourth-hour prostanoid release for that chamber. Because there may be differences in the amounts of blood vessels and connective tissue among placental explants, the release expressed per unit weight results in high variance between chambers. […] Thus, the release of each chamber was related to its functional competence at the time of treatment rather than its mass.
# The mean release for replicate chambers from a given placenta for each particular prostanoid in the presence of arachidonic acid or each of the various enzyme inhibitors was calculated and then the mean data for each of the three different placentas was averaged at each time point. […]
# [5] = arachidonic acid 10 μg/ml, within three hours of exposure
compound,measurement,setting,value
CCN(CC)CCCC(C)Nc1c2ccc(Cl)cc2nc2ccc(OC)cc12 (centres unmarked) [quinacrine],effect on PGFM release vs control,[1],no significant effect
same,effect on TxB2 release vs control,[1],no significant effect
same,effect on 6-keto-PGF1α release vs control,[1],no significant effect
same,effect on PGE release vs control,[1],no significant effect
same,effect on PGF release vs control,[1]; first hour of exposure,significant inhibition
"O=C(O)CN(CCN(CC(=O)O)CC(=O)O)CC(=O)O [EDTA, ethylene diamino tetraacetic acid]",effect on PGFM release vs control,[1],did not reduce
same,effect on TxB2 release vs control,[1],did not reduce
same,effect on 6-keto-PGF1α release vs control,[1],significant inhibition
same,effect on PGE release vs control,[1],did not reduce
Insulin like growth factor-I [IGF-I],effect on TxB2,[2]; IGF-I 10 ng/ml,inhibited
same,effect on PGF production,[2]; IGF-I 5-80 ng/ml,greatly reduced
same,greatest inhibition of TxB2 production,[2]; IGF-I 10^−8 M,70 % of the basal release
same,effect on TxB2 production,"[2]; IGF-I at each dose (5, 10, 20, 40 or 80 ng/ml)",statistically significant inhibition
same,effect on PGE,[2]; high dose of IGF-I,small reduction
same,molar concentration producing a selective pharmacological affect on human placental tissue,[2]; on the order of,~10^−9 molar
same,"cumulative release of the other hormones studied (PGE, PGFM, 6-keto-PGF1α, hCG) vs control",[3]; IGF-I 10^−8 M,no significant change
same,effect on PGE release,[3]; IGF-I 10^−8 M,not affected
same,effect on release of hCG compared to controls,[3]; IGF-I 10^−8 M,did not affect
same,hCG release,[3]; IGF-I 10^−8 M,55 % of the fifth-hour release
same,PGE release,[3]; IGF-I 10^−8 M treated tissues,228 % of the fifth-hour release
same,cumulative release of TxB2 vs control,"[3]; IGF-I 10^−8 M, P<0.01",significant reduction
same,cumulative release of PGF vs control,"[3]; IGF-I 10^−8 M, P<0.05",significant reduction
same,TxB2 release,"[3]; IGF-I 10^−8 M, by the fifth hour of treatment",85 % of the control's release
same,PGF release,"[3]; IGF-I 10^−8 M, by the fifth hour of treatment, normalized to fifth-hour release",116%
same,6-keto-PGF1α release,"[3]; IGF-I 10^−8 M, during the five hours",146 % of the fifth-hour release
same,effect on PGFM release,"[3]; IGF-I 10^−8 M, five hours of perifusion",unchanged
same,time to significant inhibition of TxB2 release,"[3]; IGF-I 10^−8 M, following treatment",≤ 150 min
same,effect on release of 6-keto-PGF1α,"[3]; IGF-I 10^−8 M, more than five hours",not significantly altered
same,effect on release of PGF,"[3]; IGF-I 10^−8 M, significant from the third hour",significantly (P<0.01) inhibited
"CC(Cc1ccc(O)c(O)c1)C(C)Cc1ccc(O)c(O)c1 (centres unmarked) [NDGA, nordihydroguaiaretic acid]",effect on 6-keto-PGF1α release vs control,[1],significant inhibition
same,effect on PGE release vs control,[1],inhibited
CCCCC/C=C\C/C=C\C/C=C\C/C=C\CCCC(=O)O [arachidonic acid],effect on prostanoid production,[4]; arachidonic acid 0.2 μg/ml,no significant effect
same,effect on prostanoid production,[4]; arachidonic acid 1.0 μg/ml,no significant effect
same,effect on PGE release,[4]; [5],significant increase
same,effect on PGF release,[4]; [5],significant increase
same,effect on 6-keto-PGF1α,[4]; arachidonic acid 0.2-10 μg/ml,no significant effect
same,effect on PGFM,[4]; arachidonic acid 0.2-10 μg/ml,no significant effect
same,effect on TxB2,[4]; arachidonic acid 0.2-10 μg/ml,no significant effect
